Active and inactive are the calls of the source. The calls are words filed in the database; no cut-off is given here.
Experiments:
[1] = Cytotoxicity against mouse RAW264.7 cells incubated for 48 hrs by MTT assay; assay type: toxicity, cell-based
Trypanosoma cruzi [2] = experiment: Antitrypanosomal activity against Trypanosoma cruzi Y trypomastigotes infected in African green monkey Vero cells assessed as parasite growth inhibition incubated for 24 hrs by hemocytometry; assay type: functional, organism-based
[3] = Selectivity index, ratio of CC50 for mouse RAW264.7 cells to IC50 for Trypanosoma cruzi Y trypomastigotes infected in African green monkey Vero cells; assay type: toxicity; settings: read-out: Ratio CC50/IC50
Trypanosoma cruzi [4] = experiment: Antitrypanosomal activity against Trypanosoma cruzi Tulahuen amastigotes infected in mouse L929 cells assessed as parasite growth inhibition measured after 7 days by CPRG/Nonidet based assay; assay type: functional, organism-based; settings: L929, 168 h
[5] = Selectivity index, ratio of CC50 for mouse RAW264.7 cells to IC50 for Trypanosoma cruzi Tulahuen amastigotes infected in mouse L929 cells; assay type: toxicity, cell-based; settings: read-out: Ratio CC50/IC50
Trypanosoma cruzi [6] = experiment: Induction of morphological changes in Trypanosoma cruzi trypomastigotes assessed as appearance of contorted body at IC50 incubated for 24 hrs by SEM analysis; assay type: functional, organism-based
Trypanosoma cruzi [7] = experiment: Induction of morphological changes in Trypanosoma cruzi trypomastigotes assessed as appearance of rounded body at 2 times IC50 incubated for 24 hrs by SEM analysis; assay type: functional, organism-based
Trypanosoma cruzi [8] = experiment: Induction of morphological changes in Trypanosoma cruzi trypomastigotes membrane assessed as appearance of membrane rupture at 2 times IC50 incubated for 24 hrs by SEM analysis
Trypanosoma cruzi [9] = experiment: Induction of morphological changes in Trypanosoma cruzi trypomastigotes assessed as appearance of shortened flagellum at IC50 incubated for 24 hrs by SEM analysis; assay type: functional, organism-based
Trypanosoma cruzi [10] = experiment: Induction of morphological changes in Trypanosoma cruzi trypomastigotes assessed as appearance of thinned flagellum at 2 times IC50 incubated for 24 hrs by SEM analysis; assay type: functional, organism-based
Trypanosoma cruzi [11] = experiment: Induction of morphological changes in Trypanosoma cruzi trypomastigotes assessed as appearance of loss of cytoplasmic content at 2 times IC50 incubated for 24 hrs by SEM analysis; assay type: functional, organism-based
Trypanosoma cruzi [12] = experiment: Induction of apoptosis in Trypanosoma cruzi trypomastigotes assessed as early apoptotic cells at IC50 incubated for 24 hrs by annexin V-FITC/PI staining based flow cytometry (reference value: 0.10 %); assay type: functional
Trypanosoma cruzi [13] = experiment: Induction of apoptosis in Trypanosoma cruzi trypomastigotes assessed as late apoptotic cells at IC50 incubated for 24 hrs by annexin V-FITC/PI staining based flow cytometry (reference value: 2.58 %); assay type: functional
Trypanosoma cruzi [14] = experiment: Induction of apoptosis in Trypanosoma cruzi trypomastigotes assessed as necrotic cells at IC50 incubated for 24 hrs by annexin V-FITC/PI staining based flow cytometry (reference value: 4.05 %); assay type: functional
Trypanosoma cruzi [15] = experiment: Induction of apoptosis in Trypanosoma cruzi trypomastigotes assessed as early apoptotic cells at 2 times IC50 incubated for 24 hrs by annexin V-FITC/PI staining based flow cytometry (reference value: 0.10 %); assay type: functional
Trypanosoma cruzi [16] = experiment: Induction of apoptosis in Trypanosoma cruzi trypomastigotes assessed as late apoptotic cells at 2 times IC50 incubated for 24 hrs by annexin V-FITC/PI staining based flow cytometry (reference value: 2.58 %); assay type: functional
Trypanosoma cruzi [17] = experiment: Induction of apoptosis in Trypanosoma cruzi trypomastigotes assessed as necrotic cells at 2 times IC50 incubated for 24 hrs by annexin V-FITC/PI staining based flow cytometry (reference value: 4.05 %); assay type: functional
Splenocyte [18] = experiment: Immunomodulatory activity in mouse splenocytes assessed as effect on IFN-gamma level at 10 ug/ml incubated for 24 to 96 hrs by flow cytometry; assay type: functional, cell-based; settings: dose 10.0 µg/ml, time 24-96 hrs
Splenocyte [19] = experiment: Immunomodulatory activity in mouse splenocytes assessed as reduction in IL-6 level at 10 ug/ml incubated for 24 hrs by flow cytometry; assay type: functional, cell-based; settings: dose 10.0 µg/ml
Splenocyte [20] = experiment: Immunomodulatory activity in mouse splenocytes assessed as reduction in IL-6 level at 10 ug/ml incubated for 96 hrs by flow cytometry; assay type: functional, cell-based; settings: dose 10.0 µg/ml
Leishmania amazonensis [21] = experiment: Antileishmanial activity against Leishmania amazonensis WHOM/00 LTB 0016 promastigotes assessed as parasite growth inhibition incubated for 72 hrs; assay type: functional, organism-based; settings: WHOM/00 LTB 0016, 72 h
[22] = Selectivity index, ratio of CC50 for mouse RAW264.7 cells to IC50 for Leishmania amazonensis WHOM/00 LTB 0016 promastigotes; assay type: toxicity; settings: read-out: Ratio CC50/IC50
Leishmania amazonensis [23] = experiment: Antileishmanial activity against Leishmania amazonensis WHOM/00 LTB 0016 amastigotes infected in mouse RAW264.7 cells assessed as parasite growth inhibition incubated for 24 hrs by panoptic staining based assay; assay type: functional, organism-based; settings: WHOM/00 LTB 0016, RAW264.7, 24 h
[24] = Selectivity index, ratio of CC50 for mouse RAW264.7 cells to IC50 for Leishmania amazonensis WHOM/00 LTB 0016 amastigotes infected in mouse RAW264.7 cells; assay type: toxicity, cell-based; settings: read-out: Ratio CC50/IC50
Trypanosoma cruzi [25] = experiment: Antitrypanosomal activity against Trypanosoma cruzi Y trypomastigotes assessed as parasite growth inhibition incubated for 24 hrs by Neubauer chamber based analysis; assay type: functional, organism-based
[26] = Cytotoxicity in BALB/c mouse splenocytes incubated for 24 hrs by [3H]-thymidine based liquid scintillation counter analysis; assay type: toxicity, cell-based, Splenocyte
Splenocyte [27] = experiment: Immunomodulatory activity in mouse splenocytes assessed as reduction in IL-10 level at 10 ug/ml incubated for 24 hrs by flow cytometry; assay type: functional, cell-based; settings: dose 10.0 µg/ml
Splenocyte [28] = experiment: Immunomodulatory activity in mouse splenocytes assessed as increase in IL-6 level at 10 ug/ml incubated for 24 hrs by flow cytometry; assay type: functional, cell-based; settings: dose 10.0 µg/ml
Splenocyte [29] = experiment: Immunomodulatory activity in mouse splenocytes assessed as increase in IL-6 level at 10 ug/ml incubated for 48 to 72 hrs by flow cytometry; assay type: functional, cell-based; settings: dose 10.0 µg/ml, time 48-72 hrs
Trypanosoma cruzi [30] = experiment: Induction of morphological changes in Trypanosoma cruzi trypomastigotes assessed as appearance of loss of cytoplasmic content at IC50 incubated for 24 hrs by SEM analysis; assay type: functional, organism-based

IC50 (Trypanosoma cruzi [2])	IC50 (Trypanosoma cruzi [4])	Activity (Trypanosoma cruzi [8])	Compound	CC50 at 48 h [1]	selectivity ratio [3]	selectivity ratio [5]	Activity (Trypanosoma cruzi [6])	Activity (Trypanosoma cruzi [7])	Activity (Trypanosoma cruzi [9])	Activity (Trypanosoma cruzi [10])	Activity (Trypanosoma cruzi [11])	Activity (Trypanosoma cruzi [12])	Activity (Trypanosoma cruzi [13])	Activity (Trypanosoma cruzi [14])	Activity (Trypanosoma cruzi [15])	Activity (Trypanosoma cruzi [16])	Activity (Trypanosoma cruzi [17])	Activity (Splenocyte [18])	IC50 (Leishmania amazonensis [21])	selectivity ratio [22]	further results
6.09 µM	0.19 µM	Active	S=C(N/N=C/c1ccccn1)Nc1ccccc1	6.09 µM	1	31.2	Active	Active	Active	Active	Active	0.07%	1.43%	6.13%	10.3%	2.9%	6.42%	inactive	11.8 µM	0.51	Activity (Splenocyte [19]): Active; Activity (Splenocyte [20]): Active; IC50 (Leishmania amazonensis [23]): 36.7 µM; selectivity ratio [24]: 0.16
–	–	–	C/C(=N\N=C1/NC(=O)C(c2ccccc2)S1)c1cc(Cl)ccc1Cl (stereo not given)	–	–	–	–	–	–	–	–	–	–	–	–	–	–	–	–	–	IC50 (Trypanosoma cruzi [25]): 0.84 µM; CC50 at 24 h [26]: ≥ 100 µM
0.9 µM	0.64 µM	Active	CC1(C)S/C(=N/N=C/c2ccccn2)N(c2ccccc2)C1=O	146 µM	162	228	Active	Active	Active	Active	Active	0.18%	3.66%	21.53%	0.33%	4.4%	21.27%	inactive	42.2 µM	3.5	Activity (Splenocyte [27]): Active; Activity (Splenocyte [28]): Active; Activity (Splenocyte [29]): Active; IC50 (Leishmania amazonensis [23]): 9.58 µM; selectivity ratio [24]: 15.2
1 µM	0.6 µM	Active	CC(C)C1S/C(=N/N=C/c2ccccn2)N(c2ccccc2)C1=O (stereo not given)	47.4 µM	46.4	79	Active	Active	Active	Active	Active	0.97%	3.83%	6.38%	0.13%	4.02%	30.19%	inactive	150 µM	0.3	Activity (Splenocyte [27]): Active; Activity (Splenocyte [20]): Active; IC50 (Leishmania amazonensis [23]): 16.8 µM; selectivity ratio [24]: 2.82

Compound	IC50 (Trypanosoma cruzi [2])	IC50 (Trypanosoma cruzi [4])	Activity (Trypanosoma cruzi [8])	CC50 at 48 h [1]	selectivity ratio [3]	selectivity ratio [5]	Activity (Trypanosoma cruzi [6])	Activity (Trypanosoma cruzi [7])	Activity (Trypanosoma cruzi [9])	Activity (Trypanosoma cruzi [10])	Activity (Trypanosoma cruzi [11])	Activity (Trypanosoma cruzi [12])	Activity (Trypanosoma cruzi [13])	Activity (Trypanosoma cruzi [14])	Activity (Trypanosoma cruzi [15])	Activity (Trypanosoma cruzi [16])	Activity (Trypanosoma cruzi [17])	Activity (Splenocyte [18])	IC50 (Leishmania amazonensis [21])	selectivity ratio [22]	further results
O=C(Cn1ccnc1[N+](=O)[O-])NCc1ccccc1 [BENZNIDAZOLE]	–	6.3 µM	Active	124 µM	8.5	19.6	Active	Active	–	–	–	0.88%	8.37%	11.69%	1.18%	22.44%	12.44%	–	–	–	Activity (Trypanosoma cruzi [30]): Active; Activity (Splenocyte [19]): Active

From ChEMBL document CHEMBL5325424, “Structural design, synthesis, and anti-Trypanosomatidae profile of new Pyridyl-thiazolidinones” (Eur J Med Chem, 2023)
